In patent publication US5441940A, “Process for the preparation of water soluble primycin and its components and pharmaceutical compositions containing them” (Chinoin Gyogyszer es Vegyeszeti Termekek Gyara Rt., priority 1988, dated 1995):

Tests used:
[1] = Gelling of aqueous solutions (concentration-, time- and temperature-dependent); type: physicochemical; details: 5-10 mg/ml aqueous solution of the single component
Description: Water soluble primycin has a further very interesting characteristic. It has been observed that its aqueous solution spontaneously gellifies, the gelling time being dependent on the primycin content of the solution. As it appears from the curves of FIG. 1, the complete gelling of a 5-10 mg/ml aqueous primycin solution requires about 1-2 days, that of a 20-40 mg/ml primycin solution requires about 6-12 hours, whereas an aqueous primycin solution comprising more than 50 mg/ml of primycin completely gellifies even within 1-2 hours. The concentration-, time- and temperature-dependent gelling (polymerization) can be attributed presumably to the changes in orientation of the --OH groups in the molecule.
The gelling properties of the individual components of formulae (A1) and (A3) and those of the two-component mixture have also been examined. […] It can be assumed that this delay in gelling is connected with a change in conformation or with the orientation of the hydroxy groups.

Water solubility = type: physicochemical; details: for water solubility (product containing bound NH4+ and ammonium hydrocarbonate contaminations): before repeated ion exchange chromatography, m.p. 159-161 °C
Bacillus subtilis = assay: Agar diffusion test, minimum inhibitory concentration (MIC) on Bacillus subtilis; type: cell-based, Bacillus subtilis ATCC 6633; details: for MIC: Table II, agar diffusion test on Bacillus subtilis; for biological activity (on Bacillus subtilis): preparation examples
Description: Thin layer chromatography was performed on a Kieselgel 60 DC Alufolien F254 plate utilizing the upper phase of a 38:2:10:50 v/v mixture of butanol, ethanol, acetic acid and water as solvent and a mixture of vanillin and sulfuric acid at 105° C. as detecting agent. Biological evaluation was performed by agar diffusion test on Bacillus subtilis.
Agar diffusion technique was applied for the biological evaluation of primycin. As test organism Bacillus subtilis ATCC 6633 was applied.
Bacillus subtilis ATCC 6633 was cultivated on a Schaeffer medium (Nutrient Broth No. 2/oxoid) with the following composition:
The solution was heated in a pressurized vessel for 30 minutes at a pressure of 1.5 atmospheres, thereafter the pE was adjusted to 7.0-7.2 with 5-6 drops of 10N sodium hydroxide solution, 90 ml portions of the solution were poured into cultivating dishes, and the portions were supplemented with 10 ml, each, of the following solutions:
a) 236 mg (10^-3 mole) of Ca(NO3)2. 4H2 O dissolved in 100 ml of distilled water, and
b) […] (10^-5 mole) of MnCl2.4H2 O dissolved in 100 ml of distilled water.
The titrating nutrient medium was prepared as follows:
5 g of meat extract (Beef Extract Difco), 0.5 g of peptone (Bacto Peptone Difco), 1 g of Na2 HPO4 and 0.1 g of KH2 PO4 were dissolved in 100 ml of distilled water, the solution was boiled for 2 hours, and then the pH was adjusted to 8. The warm solution was filtered, allowed to cool, the filtrate was diluted with 900 ml of distilled water, and 20 g of agar (Bacto Agar Difco), dissolved in a Koch pot, were added to 1 liter of the solution. The pH of the warm solution was checked. 100 ml portions of the resulting solution were filled into storage flasks and then heat treated for 20 minutes in a pressurized vessel under a pressure of 1.5 atmospheres. […]
Solutions containing 20-50 /ug/ml of active agent were prepared from the substances to be examined [starting water insoluble primycin; water soluble primycin; a mixture of the compounds of formulae (A1) and (A3); a compound of formula (A1); a compound of formula (A3)] in water or in a 1:1:2 v/v mixture of butanol, ethanol and water, and the resulting solutions were diluted with buffered distilled water (0.15 molar phosphate buffer, pH=7.6) to concentrations of 0.05-0.1, 0.5-1.0 and 2.0 /ug/ml. […] Thereafter the diameters of the diffusive extinction zones were measured in mm, the obtained values were plotted on a semi-logarithmic scale against the concentrations of the standard serial dilutions, and the activity values were determined by extrapolation.

| Structure (SMILES) | storage of aqueous solution without any observable change [1] | water solubility (in words) (Water solubility) | MIC (Bacillus subtilis) | biological activity (on Bacillus subtilis) (Bacillus subtilis; listed as component of formula (A1)) | water solubility (product containing bound NH4+ and ammonium hydrocarbonate contaminations) (Water solubility) | water solubility (product containing bound NH4+ and ammonium hydrocarbonate contaminations) (Water solubility; listed as component of formula (A3)) | Water solubility (Water solubility; water, listed as component of formula (A3)) | biological activity (on Bacillus subtilis) (Bacillus subtilis) |
| --- | --- | --- | --- | --- | --- | --- | --- | --- |
| CCCCC1C(=O)OC(C(C)C(O)CCCNC(=N)N)C(C)C=C(C)CCCCC(O)CC(O)CC(O)CC(O)CC(O)C(OC2OC(CO)C(O)C2O)C=C(C)C(O)CCCC(O)CCCC(O)CCC(C)C1O (stereo not shown) [Compound of formula (A1)] | can be stored for days (maximum for one week) without any observable change | well soluble in water | 0.03 to 0.06 µg/mL | 0.03-0.06 /ug/ml | – | – | – | – |
| CCCCC1C(=O)OC(C(C)C(O)CCCNC(=N)N)C(C)C=C(C)CCCCC(O)CC(O)CC(O)CC(O)CC(O)C(OC2OC(CO)C(O)C2O)C=C(C)C(O)CCCC(O)CCCC(O)CCC(C)C1O (stereo not shown) [Compound of formula (A3)] | can be stored for days (maximum for one week) without any observable change | – | 0.5 to 1.0 µg/mL | – | about 5 mg/ml | 2000 to 6000 µg/mL | about 50 mg/ml | 0.5-1 /ug/ml |
